Where “and” joins values, the source holds several entries; their conditions need not be identical. Identical values can stand only once. Marks after values point to notes of the source that are not given here. Each block holds one compound with its values, some of them ahead of it.
Experiments:
Format in all cases: physicochemical
[1] = Two-photon single-molecule characterization (fluorescence correlation spectroscopy)
Text: Single-molecule fluorescence measurements. Given the very attractive bulk-level photophysical properties of ABN in solution, we next investigated its potential as a single-molecule probe. […] In a later study, the base analogue DMA^thaU was detected as a free nucleoside at the single-molecule level for the first time via multiphoton excitation with a brightness of […] per molecule following three-photon excitation (see Phys. Chem. Chem. Phys. 2018, 20 (45), 28487; and J. Phys. Chem. Lett. 2019, 10 (17), 5008). […] The 2P brightness was measured using fluorescence correlation spectroscopy (FCS) and found to match that of DMA^thaU at 7 kHz per molecule (FIG. 3B).
Sample preparation for 2P method. All experiments were done with a solution of approximately 100 nM of ABN in TRIS buffer (20 mM TRIS base) at a pH of 7.5. The molecules were initially dissolved in DMSO (at a concentration of 100 μM) and subsequently diluted in buffer. The TRIS buffer was prepared with ultrapure water (Direct Q3, Merck Millipore), TRIS-base (20 mM, Trizma base, BioUltra, Sigma-Aldrich) and 150 mM NaCl (analytical reagent grade, Fluka). The pH was adjusted to 7.5 with a HCl solution (Sigma-Aldrich). Prior to sample preparation, the buffer was filtered with activated charcoal (Darco, Fluca) and through a 0.2 μm filter (Milex, Merck).
Two photon microscope. The two-photon microscope is a homebuilt pulse-shaper assisted setup with a ultra-broadband Ti:Sa laser as light source, recently described (R. S. Fisher, et al., Phys. Chem. Chem. Phys., 20, 28487 (2018)). The excitation source was a broadband Ti: Sapphire laser with a repetition rate of 80 MHz and a spectrum centered on 800 nm with a FWHM of 135 nm (Vitara UBB, Coherent). […] Sample fluorescence was collected by the same objective and transmitted through a dichroic mirror (Chroma 675dcspxr) and a short pass filter (Semrock FF01-650/SP), split by a polarising beamsplitter cube and detected by two avalanche photodiodes (MPD PDM 50c and 1MPD $PD-050-CTB). The signal was subsequently detected by a hardware correlator (ALV-7002, ALV GmbH).

[2] = Steady-state photophysical measurements of ABN in single-stranded and duplex DNA oligonucleotides
Text: Next, we measured the fluorescence of ABN in single-stranded and duplex DNA oligonucleotides to determine how base pairing and stacking influence its photophysical properties (Table 2). ABN increases its fluorescence to Φem=0.50-0.53 in matched duplex DNA oligonucleotides when base paired with A and Φem=0.55 when the analogue is present in the hairpin loop of ODN1. The quantum yield is less, 0.40 and 0.29, in ODN1:ODN3 and ODN4:ODN6 respectively, in which ABN is base paired with G. In ODN7:ODN9 Φem,=0.55, slightly greater than when base paired with A. In all of these single-stranded and duplex sequences, ABN is brighter than any other known FBA when present in oligonucleotides.
(§1) Quantum yields measurements. Experiments were measured in a quartz sub-micro cuvette (10 mm path length) purchased from Starnacell Inc. Steady state emission scans were recorded using a PTI QuantaMaster QM-400 and absorbances were measured on a Shimadzu UV-1700 Pharmaspec spectrometer. Quantum yield measurements were performed the comparative method of Williams et. al. and measured in duplicate, at minimum. Coumarin 153 in ethanol was used as a reference standard for all photophysical measurements. All measurements were taken with an absorbance range of 0.01-0.1. Subsequent dilutions were performed stepwise in order to obtain a minimum of six absorbance and emission spectra for quantum yield determinations.

[3] = One-photon single-molecule total internal reflection fluorescence (smTIRF) microscopy
Text: The red-shifted absorption profile, high 2P brightness and predominance of the bright state made ABN a promising candidate for single-molecule detection via 1P excitation. […] Furthermore, these fluorescent puncta underwent single-step photobleaching under constant irradiation (FIG. 4B), consistent with the idea that ABN has suitable optical properties to be used as a single-molecule fluorescent nucleoside. By quantifying >2000 individual trajectories, we were able to determine the mean total detected photon value of 5300±1800 photons per molecule; furthermore, a mean of 1500±600 photons were detected per 100 ms integration from each molecule at a power density of 0.2 kW cm^−2.
Sample and slide preparation for IP method. ABN (10 mM, DMSO) was diluted into filtered (0.2 μm syringe filter, Whatman, 6780-1302) PBS (pH 7.4) to a working concentration of 100 nM. Borosilicate glass coverslips (VWR Int, 22×22 mm) were cleaned for 1 hour using an argon plasma (PDC-002, Harrick Plasma). Frame-Seal slide chambers (9×9 mm^2, Biorad, Hercules, CA) were affixed to the glass and the slides washed three times with filtered PBS (3×50 μL). The working solution of ABN (100 nM, 50 μL) was added to the slide and left for 3-minutes allowing for some of the ABN molecules to adsorb to the plasma-cleaned glass surface. […]
Single-molecule imaging. Single-molecule fluorescence imaging of ABN was performed on a bespoke total internal reflection fluorescence microscope using a 488 nm continuous wavelength diode laser (iBeamSMART, Toptica, 200.46 Wcm^−2). […] Fluorescence emission was collected by the same objective lens and separated from excitation light using a dichroic mirror (Di01-R405/488/561/635, Semrock) and passed through appropriate emission filters (BLP01-488R-25, FF01-520/44-25, Semrock). The fluorescence was then expanded (1.5×) and focused onto an electron-multiplying charge-coupled device (EMCCD, Evolve 512 Delta, Photometrics) with an electron multiplication gain of 250 ADU/photon operating in frame transfer mode. […]
Data analysis. A custom ImageJ macro was used to determine the total number of photons detected from single ABN emitters. The frames from single-molecule movies were summed and the pixel of peak intensity from each molecule was determined using the inbuilt ‘Find Maxima’ function (prominence threshold=20,000). The single emitters were selected from a 6×6 region surrounding the pixel of peak intensity and the total integrated intensity of the region was measured. […] The intensity per ABN emitter was converted from counts to photons detected by dividing the integrated signal above background by the total gain of the EMCCD (35.7 ADU/photon).

[4] = Steady-state absorption and fluorescence of the ABN nucleoside in solvents
Text: Photophysical properties. Steady-state measurements. […] Owing to the conjugated push-pull system in the design of ABN, the absorption and emission wavelengths are the longest known for a FBA designed to be capable of Watson-Crick hydrogen bonding. Recorded emission spectra in water using excitation wavelengths ranging from 310-500 nm are nearly superposable, as are excitation spectra recorded for emission wavelengths spanning 500-650 nm. These observations support the predominance of a single tautomeric form in dilute, aqueous solution.
as §1

[5] = Melting temperatures of ABN-containing oligonucleotides (temperature-dependent circular dichroism); settings: for Tm: ABN-containing hairpin or duplex
Text: Temperature-dependent circular dichroism measurements of all six duplexes are consistent with the B-DNA conformation with only minimal perturbation (Table 2). Except in the ODN1 hairpin, where ABN is expected to be mostly solvent exposed, the melting temperatures of the duplexes are typically somewhat depressed as compared with their natural counterparts. Duplex stability is lowest when ABN has 5′-G and 3′-C neighbors, an observation consistent with other tricyclic FBAs, especially those that are electron-rich. The observed melting temperatures provide little indication of whether ABN is a better T- or C-surrogate.

[6] = Steady-state photophysical measurements of ABN in single-stranded and duplex DNA oligonucleotides; settings: 1×PBS buffer (pH 7.4), different concentrations
[7] = Tm of ABN-containing duplex − Tm of corresponding duplex with canonical thymidine in place of ABN
[8] = ABN in DNA oligonucleotide, 1×PBS buffer (pH 7.4)

bright/dark state by controlled dilution ([1]; FCS, controlled dilution): exclusively in a bright state
fraction of compound in a bright state ([1]; single-molecule fluorescence measurements): > 95%
Φem ([2]; in matched duplex DNA oligonucleotides, base paired with A): 0.50-0.53
mean total on-time ([3]; 0.2 kW cm^−2): 0.35 ± 0.18 s
mean number of photons detected per frame per single molecule ([3]; 488 nm, 0.2 kW cm^−2, 100 ms integration): 1500±600 photons/100 ms
mean total number of photons detected per single molecule ([3]; 488 nm, 0.2 kW cm^−2, log-normal fit, N=2402 molecules): 5300±1800 photons
brightness following 1P excitation ([3]; one-photon excitation): 15 kHz per molecule
λem, max [4]: 540 nm
ε · Φem (brightness) ([4]; 1,4-dioxane): 19000 M⁻¹ cm⁻¹
λem, max ([4]; 1,4-dioxane): 474 nm
λex, max ([4]; 1,4-dioxane): 420 nm
Φem ([4]; 1,4-dioxane, emission 474 nm): 0.64
Φem ([4]; 1 × PBS pH 7.4): 0.39
λex, max ([4]; 1 × PBS pH 7.4): 442 nm
ε · Φem (brightness) ([4]; H2O): 7800 M⁻¹ cm⁻¹
λem, max ([4]; H2O): 540 nm
λex, max ([4]; H2O): 442 nm
Φem ([4]; H2O, emission 540 nm): 0.39
red shift of absorption relative to closest competitors on brightness (pA, coumarin nucleoside) ([4]; aqueous solution): more than 50 nm
red shift of emission relative to closest competitors on brightness (pA, coumarin nucleoside) ([4]; aqueous solution): > 80 nm
Compound: CCN(CC)c1ccc2cc3cc([C@H]4C[C@@H](O)[C@@H](CO)O4)c(=O)nc-3[nH]c2c1 [ABN, 8-(diethylamino)-3-((2R,4R,5R)-4-hydroxy-5-(hydroxymethyl)tetrahydrofuran-2-yl)benzo[b][1,8]naphthyridin-2(10H)-one]
2P brightness (average count rate per molecule) ([1]; FCS, two-photon excitation, 100 nM in TRIS buffer, excitation power 11 mW): 7 kHz per molecule and 7±0.5 kHz per molecule

Compound: ODN1: hairpin GCT TAG CAG GXT AGT GCT AAG C (SEQ ID NO: 1), X = ABN in loop (GCT TAG CAG GXTAGT GCT AAG C; ABN abasic-like nucleoside in loop, as printed in the source, key not given here)
Tm [5]: 63.6 ± 0.6 °C
ΔTm [5, 7]: +3.1 °C
Φem [2, 8]: 0.55
λabs, max [2, 8]: 450 nm
λem, max [2, 8]: 530 nm

Compound: ODN1:ODN2: duplex of ODN1 with ODN2 (HairpinA, SEQ ID NO: 4); ABN base paired with A (chain 1 GCTTAGCAGGNTAGTGCTAAGC; chain 2 GCTTAGCACTAACCTGCTAAGC; ABN nucleoside, chemistry not fully specified)
Tm [5]: 61.8 ± 0.4 °C
ΔTm [5, 7]: −4.7 °C
Φem [2, 8]: 0.53
λabs, max [2, 8]: 440 nm
λem, max [2, 8]: 530 nm

Compound: ODN1:ODN3: duplex of ODN1 with ODN3 (HairpinG, SEQ ID NO: 5); ABN base paired with G (chain 1 GCTTAGCAGGNTAGTGCTAAGC; chain 2 GCTTAGCACTAGCCTGCTAAGC; ABN nucleoside, chemistry not fully specified)
Tm [5]: 61.3 ± 0.6 °C
ΔTm ([5]; comparison with Tm of the corresponding natural duplex with a C:G base pair): +1.6^c ° C.
Φem [2, 8]: 0.40
λabs, max [2, 8]: 468 nm
λem, max [2, 8]: 523 nm

Compound: ODN4: 10-mer CGC AAX ATC G (SEQ ID NO: 2), X = ABN (ABN nucleoside, as printed in the source, key not given here)
Φem [2, 8]: 0.49
λabs, max [2, 8]: 452 nm
λem, max [2, 8]: 540 nm

Compound: ODN7: 10-mer CGC AGX CTC G (SEQ ID NO: 3), X = ABN (ABN nucleoside, as printed in the source, key not given here)
concentration dependence of absorption spectra [6]: concentration dependent
Φem [2, 8]: 0.62
λem, max [2, 8]: 532 nm

From patent US12329828B2, “Pyrimidine nucleoside compounds for fluorescence imaging and spectroscopy” (San Diego State University Foundation, priority 2020, dated 2025)
